Laboratory results: patent US20160138114A1, “Biomarkers of Response to Inhibition of Poly-ADP Ribose Polymerase (PARP) in Cancer” (THE REGENTS OF THE UNIVERSITY OF CALIFORNIA, priority 2013, published 2016)

How the values were obtained:
[1] = system: 184B5 CHD1L knock-in clone 7; experiment: BMN673 treatment of CHD1L knock-in clone; assay type: cell-based; conditions: Homo sapiens; 184B5 knock-in clone 7, high CHD1L protein expression
Experimental: (§1) This example illustrates the creation of cell lines overexpressing CHD1L protein by vector knock-in. Briefly, breast cancer cell line 184B5 cells were transduced with lentivirus containing CHD1L cDNA. After transduction, clones transfected with CHD1L were selected with 500 μg/mL G418 for 1 week. Expression of CHD1L protein in the 24 knock-in clones and the parental cell line 184B5 was detected by Western blot. […] This example illustrates that the knock-in of CHD1L protein sensitized breast cancer cells to BMN673 treatment. Briefly, 184B5 knock-in clones 7 and 14 (i.e., cells with high CHD1L protein expression) were treated with BMN673 and compared with the 184B5 parental cell line (i.e., cells with low CHD1L protein expression) treated with BMN673, with respect to percent death from baseline (FIG. 5, top panel) and percent growth inhibition (FIG. 5, bottom panel).

[2] = system: 184B5 CHD1L knock-in clone 14; experiment: BMN673 treatment of CHD1L knock-in clone; assay type: cell-based; conditions: Homo sapiens; 184B5 knock-in clone 14, high CHD1L protein expression
Experimental: as §1

184B5 parental cell line = experiment: BMN673 treatment of CHD1L knock-in study, parental line; assay type: cell-based; conditions: Homo sapiens, low CHD1L protein expression
Experimental: as §1

EMF192A = experiment: BMN673 sensitivity (cell growth) in cancer cell line; assay type: cell-based, human; conditions: Breast
Experimental: (§2) This example illustrates that CHD1L amplification correlated with overexpression of CHD1L protein. […] CHD1L protein expression in the NSCLC and breast cancer cell lines was assayed by Western blot with antibodies against CHD1L. […] HCC1937 was used as a negative control for CHD1L protein expression, as the cell line carries a loss of heterozygosity (LOH) of CHD1L. Each of these cell lines was also assayed for sensitivity or resistance to inhibition of PARP by BMN673. Briefly, each cell line was cultured and exposed to a range of concentrations of BMN673 to determine an IC50 value of inhibitory effect on PARP (as evidenced by cell growth) for each cell line (see Table 2).

H1568 = experiment: as above; assay type: cell-based, human; conditions: H1568, Lung
Experimental: as §2

BT-474 = experiment: as above; assay type: cell-based, human; conditions: BT-474, Breast
Experimental: as §2

184B5 = experiment: as above; assay type: cell-based, human; conditions: 184B5, Breast
Experimental: as §2

BT-20 = experiment: as above; assay type: cell-based, human; conditions: BT-20, Breast
Experimental: as §2

HCC1187 = experiment: as above; assay type: cell-based, human; conditions: HCC1187, Breast
Experimental: as §2

H1838 = experiment: as above; assay type: cell-based, human; conditions: H1838, Lung
Experimental: as §2

MDA-MB-436 = experiment: as above; assay type: cell-based, human; conditions: MDA-MB-436, Breast
Experimental: as §2

CaLu1 = experiment: as above; assay type: cell-based, human; conditions: CaLu1, Lung
Experimental: as §2

H1651 = experiment: as above; assay type: cell-based, human; conditions: H1651, Lung
Experimental: as §2

HCC1937 = experiment: as above; assay type: cell-based, human; conditions: HCC1937, Breast
Experimental: as §2

MCF7 = experiment: as above; assay type: cell-based, human; conditions: MCF7, Breast
Experimental: as §2

SMILES: Cn1ncnc1[C@H]1c2n[nH]c(=O)c3cc(F)cc(c23)N[C@@H]1c1ccc(F)cc1 [BMN673]
- IC50 [1]: 62 nM
- IC50 [2]: 30 nM
- IC50 (184B5 parental cell line): ~1000 nM
- Response (EMF192A): resistant and Res
- IC50 (EMF192A; Homo sapiens, 1q21 NC): 897 nM
- Response (H1568): Int
- IC50 (H1568; Homo sapiens, NCI-H1568, 1q21 AMP): 49.8 nM
- Response (BT-474): resistant and Res
- IC50 (BT-474; Homo sapiens, 1q21 NC): 595 nM
- Response (184B5): resistant and Res
- IC50 (184B5; Homo sapiens, 1q21 NC): 5480 nM
- Response (BT-20): resistant and Res
- IC50 (BT-20; Homo sapiens, 1q21 NC): 352 nM
- Response (HCC1187): sensitive and Sens
- IC50 (HCC1187; Homo sapiens, 1q21 AMP): 1.09 nM
- Response (H1838): sensitive and Sens
- IC50 (H1838; Homo sapiens, NCI-H1838, 1q21 AMP): 1.2 nM
- IC50 (MDA-MB-436; Homo sapiens, 1q21 AMP): 0.19 nM
- Response (MDA-MB-436): sensitive and Sens
- Response (CaLu1): resistant and Res
- IC50 (CaLu1; Homo sapiens, Calu-1, 1q21 NC): 2560 nM
- Response (H1651): sensitive and Sens
- IC50 (H1651; Homo sapiens, NCI-H1651, 1q21 AMP): 6.31 nM
- Response (HCC1937): Int
- IC50 (HCC1937; Homo sapiens, 1q21 LOH): 84.2 nM
- IC50 (MCF7; Homo sapiens, 1q21 AMP): 92.8 nM
- Response (MCF7): sensitive and Int
